pIC50: −log10 of the molar value.
Target: T1, Plasmodium falciparum malate:quinone oxidoreductase (PfMQO) (Plasmodium falciparum, UniProt C6KT09)
T1 construct: gene PF3D7_0616800; PfMQO-membrane fraction from PfMQO-expressing recombinant Escherichia coli
T1 sequence (C6KT09 1-521): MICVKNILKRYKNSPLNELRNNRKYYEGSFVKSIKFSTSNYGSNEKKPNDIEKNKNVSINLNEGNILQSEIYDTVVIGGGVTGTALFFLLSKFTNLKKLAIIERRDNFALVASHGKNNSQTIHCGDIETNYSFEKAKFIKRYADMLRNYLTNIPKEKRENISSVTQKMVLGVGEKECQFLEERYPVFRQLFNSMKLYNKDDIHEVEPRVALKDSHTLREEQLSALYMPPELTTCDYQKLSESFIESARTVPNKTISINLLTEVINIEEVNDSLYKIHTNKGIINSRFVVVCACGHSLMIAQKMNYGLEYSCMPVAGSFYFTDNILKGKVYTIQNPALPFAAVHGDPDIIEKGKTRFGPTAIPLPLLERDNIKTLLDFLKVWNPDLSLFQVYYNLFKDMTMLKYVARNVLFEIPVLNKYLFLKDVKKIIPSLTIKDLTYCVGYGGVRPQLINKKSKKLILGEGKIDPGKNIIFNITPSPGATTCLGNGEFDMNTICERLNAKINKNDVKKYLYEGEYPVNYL
Test: DCIP-reduction enzyme assay (A600, malate/decylubiquinone) with recombinant PfMQO membrane fraction
Assay type: biochemical

C/C=C(\C)c1c(Cl)c(O)c(C)c2c1Oc1c(Cl)c(O)c(Cl)c(C)c1C(=O)O2 [Fr10, nornidulin]
pIC50: 4.29
